Experimental findings from ChEMBL document CHEMBL6134901 (J Med Chem, 2025) are described below.

SMILES strings stand for the structures.

By inhibition is commonly meant the share of the control response that was lost under treatment.

This assay concerns Clostridioides difficile. In words: Antibacterial activity against Clostridium difficile ATTC43255 assessed as spore germination inhibition at 45 uM incubated for 60 mins by spectrometry relative to control. Conditions: ATTC43255, 1 h. It is filed as functional.
Regarding `CCCOc1ccc(-c2noc(-c3ccc(CN)cc3)n2)cc1`, the inhibition at 45 µM was found to be 12%.

In the case of `FC(F)(F)c1ccc(Oc2ccc(-c3noc(-c4c[nH]cn4)n3)cc2)cc1`, the inhibition at 45 µM was below 10%.

As for `Oc1ccc(-c2nc(N3CCN(c4ccccc4)CC3)no2)cc1`, the inhibition at 45 µM was 18%.

In the case of `N#Cc1ccc(-c2nc(-c3ccc(Oc4ccc(F)cc4)cc3)no2)cc1`, the inhibition at 45 µM was below 10%.

On to `O=[N+]([O-])c1ccccc1Oc1ccc(-c2noc(-c3ccc(O)cc3)n2)cc1`, for which the inhibition at 45 µM amounted to 21%.

On to `FC(F)(F)c1ccc(Oc2ccc(-c3noc(-c4cc5ccccc5[nH]4)n3)cc2)cc1`, for which the inhibition at 45 µM is below 10%.

Regarding `Nc1cc(-c2nc(-c3ccc(Oc4ccc(C(F)(F)F)cc4)cc3)no2)cnc1O`, the inhibition at 45 µM was below 10%.

For the compound `Cc1c(Cl)c(C)[n+]([O-])c(Cl)c1-c1noc(-c2cc(O)c(O)c([N+](=O)[O-])c2)n1` [OPICAPONE], the inhibition at 45 µM was below 10%.

For `Oc1ccc(-c2nc(-c3ccc(C(O)C(F)(F)F)cc3)no2)cc1` (centres undefined), the inhibition at 45 µM was below 10%.

In the case of `FC(F)(F)c1ccc(Oc2ccc(-c3noc(-c4cn[nH]c4)n3)cc2)cc1`, the inhibition at 45 µM is below 10%.

As for `Nc1c[nH]nc1-c1nc(-c2ccc(Oc3ccc(C(F)(F)F)cc3)cc2)no1`, the inhibition at 45 µM is below 10%.

On to `Oc1ccc(-c2nc(N3CCN(c4cccc(Cl)c4)CC3)no2)cc1`, for which the inhibition at 45 µM was below 10%.

For the compound `CS(=O)(=O)Nc1ccc(-c2nc(-c3ccc(OC4CCCC4)cc3)no2)cc1`, the inhibition at 45 µM was below 10%.

As for `NCCc1ccc(Oc2cc(-c3noc(-c4ccc(CN)cc4)n3)ccn2)cc1`, the inhibition at 45 µM stood at 27%.

`COc1ccc(-c2nc(-c3ccc(Oc4ccc(C(F)(F)F)cc4)cc3)no2)cc1[N+](=O)[O-]`: the inhibition at 45 µM was below 10%.

Consider `Nc1ccc(-c2nc(-c3ccc(OC4CCCC4)cc3)no2)cc1`, for which the inhibition at 45 µM was below 10%.

As for `Oc1ccc(-c2nc(-c3ccc(Oc4ccc(C(F)(F)F)cc4)cc3)no2)cc1F`, the inhibition at 45 µM worked out at 14%.

In the case of `CC(C)(C)OC(=O)NCc1ccc(-c2nc(-c3ccc(OC4CCCC4)cc3)no2)cc1`, the inhibition at 45 µM is below 10%.

For the compound `C#CCOc1ccc(-c2noc(-c3ccc(O)cc3)n2)cc1`, the inhibition at 45 µM was below 10%.

Turning to `NCc1ccc(-c2nc(-c3ccc(OC4CC4)cc3)no2)cc1`, the inhibition at 45 µM worked out at 12%.

Turning to `NCc1ccc(-c2nc(-c3ccnc(N4CCCC4)c3)no2)cc1`, the inhibition at 45 µM was 13%.

With `FC(F)(F)c1ccc(Oc2ccc(-c3noc(-c4nc[nH]n4)n3)cc2)cc1`, the inhibition at 45 µM was below 10%.

Turning to `CCCCOc1ccc(-c2noc(-c3ccc(O)cc3)n2)cc1`, the inhibition at 45 µM is below 10%.

Turning to `CS(=O)(=O)Nc1ccc(Cc2noc(-c3ccc4[nH]cc(CCN)c4c3)n2)cc1` [L-694247], the inhibition at 45 µM is below 10%.

Regarding `FC(F)(F)c1ccc(Oc2ccc(-c3noc(-c4ccncc4)n3)cc2)cc1`, the inhibition at 45 µM was below 10%.

As to `CC(C)Cc1ccc(-c2nc(-c3ccc(CN4CC(C(=O)O)C4)cc3)no2)cc1`, the inhibition at 45 µM was below 10%.

Turning to `FC(F)(F)c1ccc(Oc2ccc(-c3noc(-c4n[nH]cc4NC4CCCC4)n3)cc2)cc1`, the inhibition at 45 µM was below 10%.

Turning to `NCc1ccc(-c2nc(-c3ccc(Oc4ccc(C(F)(F)F)cc4)cc3)no2)cc1`, the inhibition at 45 µM is 41%.

As for `NCCCCc1nc(-c2ccc(Oc3ccc(F)cc3)cc2)no1`, the inhibition at 45 µM is below 10%.

On to `CC(C)(C)Oc1ccc(-c2noc(-c3ccc(O)cc3)n2)cc1`, for which the inhibition at 45 µM is below 10%.

Take `Oc1ccc(-c2nc(-c3ccc4c(c3)OCO4)no2)cc1`: the inhibition at 45 µM is below 10%.

On to `O=C(Nc1c[nH]nc1-c1nc(-c2ccc(Oc3ccc(C(F)(F)F)cc3)cc2)no1)c1ccccc1`, for which the inhibition at 45 µM was below 10%.

In the case of `FC(F)(F)c1ccc(Oc2ccc(-c3noc(-c4n[nH]cc4Cl)n3)cc2)cc1`, the inhibition at 45 µM is below 10%.

`CC(C)Oc1ncc(-c2nc(-c3cccc4c3ccn4CCCC(=O)O)no2)cc1Cl` [GSK-2018682]: the inhibition at 45 µM is below 10%.
